Results: patent US20100222285A1, “METHOD OF CONTROLLING THE PROLIFERATION OF VASCULAR ENDOTHELIAL CELLS AND INHIBITING LUMEN FORMATION” (Rare Sugar Production Technical Research Laboratories, LLC, priority 2004, published 2010)
“Also recorded” adds a separate entry of the source.

Assays:
[1] = test system: human endothelial cells and fibroblasts; assay: Experiment of luminal formation: concurrent culture, CD31 staining, area of the lumen; type: cell-based; conditions: for effect on the luminal formation: Example 1, 0.1-20 mM, 10 days; for effect on the luminal formation of HUVEC: Example 2 (36 species), incubation for 10 days; for inhibition at 20000 µM / inhibition at 1000 µM / inhibition at 2500 µM: Homo sapiens; for inhibition at 20000 µM: 20 mM; for antagonism of the luminal formation inhibitory effect by D-glucose: co-existence of 20 mM D-glucose; for inhibition of the acceleration of luminal formation by VEGF: with VEGF; for inhibition at 1000 µM: 1 mM; for inhibition at 2500 µM: 2.5 mM
Description: Using a concurrent culture system of human endothelial cells and fibroblasts planted on a 24-well plate (Kurabo Co., Osaka, Japan), the culture medium was replaced by culture media containing a variety of additives at the early stage of luminal formation. Every 3 days, the medium was exchanged with the additive; 10 day after incubation, the endothelial cell only was stained by using mouse anti-human CD31 antibody (Kurabo Co., Osaka, Japan), goat anti-mouse IgG AlkP Conjugate (Kurabo Co., Osaka, Japan), and BCPI (5-bromo-4-chloro-3-indolyl phosphate) (Kurabo Co., Osaka, Japan) to photograph. The visualized area of the lumen was measured by means of NIH image software.

[2] = test system: Human umbilical cord vascular endothelial cells (HUVEC); assay: Experiment of growth: HUVEC cell number by WST-8 after 48 hrs; type: cell-based; conditions: for inhibition at 20000 µM: Homo sapiens, HUVEC, 20 mM, read-out: inhibition of growth to the control group; for antagonism of the growth inhibitory effect by D-glucose: co-existence of 20 mM D-glucose
Description: Human umbilical cord vascular endothelial cells (HUVEC) were purchased as primary cultured cells from KURABO (Kurabo Co., Osaka, Japan) and the cells up to P8 were used in experiments. The cells were inoculated on a 96-well plate at a rate of 3000 cells/well, and allowed to stand in Humedia EG2 (Kurabo) overnight (37° C., 5% CO2). Next morning, the medium was replaced by 90 μl of 2% FBS-containing Humedia EB2 (Kurabo), to which was then added 10 μl of additive, and after a lapse of 48 hrs the number of cells was counted. No medium was exchanged during this period. In counting, a tetrazolium salt WST-8 was added to each well (0.5 mM), and after 2 hrs the absorbance was measured at 450 nm. The tetrazolium salt added was reduced with an intracellular dehydrogenase to yield formazan depending on the number of cells in the well. In advance, the absorbance at 450 nm was confirmed to show a linearity within the range of 500 to 12000 cells in the well.

[3] = Example 2 (36 species), 48 hours

Row | SMILES | effect on the luminal formation [1] | effect on the luminal formation of HUVEC [1] | inhibition at 20000 µM [1] [%] | antagonism of the luminal formation inhibitory effect by D-glucose [1] | effect on the growth of HUVEC ([2]; Example 1, 0.1-20 mM, 48 hrs) | effect on the growth of HUVEC [2, 3] | inhibition of the acceleration of luminal formation by VEGF [1] | also measured
1 | O=C[C@H](O)C[C@H](O)[C@H](O)CO [3DG, 3-deoxy-D-glucose] | effect was confirmed | inhibitory effect was observed | 50 to 80 | no apparent effect | effect was confirmed | inhibitory effect was observed | – | effect on the luminal formation ([1]; listed as 3-deoxy-D-glucose): inhibit both; effect on the growth of HUVEC ([2]; Example 1, 0.1-20 mM, 48 hrs, listed as 3-deoxy-D-glucose): inhibit both; inhibition at 20000 µM ([2]; 48 hrs): 40 to 80%; antagonism of the growth inhibitory effect by D-glucose [2]: antagonized
2 | O=C[C@@H](O)[C@H](O)[C@H](O)[C@H](O)CO [ALT, D-altrose] | effect was confirmed | inhibitory effect was observed | 50 to 80 | no apparent effect | no influence | – | inhibit the acceleration by VEGF | –
3 | O=CC[C@H](O)[C@H](O)CO [DRI, 2-deoxy-D-ribose] | effect was confirmed | inhibitory effect was observed; also recorded: strong action | – | no apparent effect | effect was confirmed | inhibitory effect was observed | inhibit the acceleration by VEGF | inhibition at 1000 µM [1]: ~20%; inhibition at 2500 µM [1]: > 95%; inhibition at 20000 µM ([2]; 48 hrs): 40 to 80%; antagonism of the growth inhibitory effect by D-glucose [2]: no antagonism
4 | O=C(CO)[C@H](O)[C@@H](O)[C@H](O)CO [DSO, D-sorbose] | – | – | – | – | – | no remarkable effect | – | –
5 | O=C(CO)[C@@H](O)[C@H](O)[C@H](O)CO [FRU, D-fructose] | – | – | – | – | – | no remarkable effect | – | –
6 | O=C[C@H](O)[C@H](O)[C@@H](O)[C@H](O)CO [GUL, D-gulose] | effect was confirmed | inhibitory effect was observed | 50 to 80 | no apparent effect | no influence | – | inhibit the acceleration by VEGF | –
7 | O=C[C@@H](O)[C@@H](O)[C@@H](O)[C@@H](O)CO [LAL, L-allose] | effect was confirmed | inhibitory effect was observed | 50 to 80 | antagonized | no influence | – | – | –
8 | O=CC[C@@H](O)[C@@H](O)CO [LDR, 2-deoxy-L-ribose] | effect was confirmed | inhibitory effect was observed; also recorded: strong action | – | no apparent effect | effect was confirmed | inhibitory effect was observed | inhibit the acceleration by VEGF | inhibition at 1000 µM [1]: ~20%; inhibition at 2500 µM [1]: > 95%; inhibition at 20000 µM ([2]; 48 hrs): 40 to 80%; antagonism of the growth inhibitory effect by D-glucose [2]: no antagonism
9 | O=C(CO)[C@H](O)[C@@H](O)[C@@H](O)CO [LFR, L-fructose] | – | – | – | – | – | no remarkable effect | – | –
10 | O=C(CO)[C@@H](O)[C@@H](O)[C@@H](O)CO [LPS, L-psicose] | – | – | – | – | – | no remarkable effect | – | –
11 | O=C(CO)[C@H](O)[C@H](O)[C@@H](O)CO [LTA, L-tagatose] | – | – | – | – | – | no remarkable effect | – | –
12 | O=C(CO)[C@@H](O)[C@@H](O)[C@H](O)CO [TAG, D-tagatose] | – | – | – | – | – | no remarkable effect | – | –
